1 compound from patent US20260248869A1, “SILICONE GEL COMPOSITION OF WALNUT EXTRACT” (priority 2022, published 2026) can be followed below.

This data set is described as follows: Confocal optical microscopy of Juglone penetration depth in human skin. It counts as in vitro ADME. Conditions: epidermal region; signal disappeared at greater depths. The source says:
The penetration in human skin was also studied by confocal microscopy, using the fluorescence of the Juglone molecule exciting it with light of 488 nm and observing its fluorescence in a window from 510 to 702 nm. For this penetration study, a Leica microscope, model SPE Confocal Microscope was used, with a 10×lens. The location of the Juglone molecules in depth was established with this instrument (in perpendicular direction to the skin surface). The accumulation of Juglone at different depth levels causes the appearance of areas with different fluorescence intensity and allows to observe directly where the molecule is retained. It must be noted that white Caucasian skins were chosen to prevent interferences of basal fluorescence and thus clearly observe the fluorescence of the Juglone molecule.
The transdermal permeation study was performed according to the “Guidance document for the conduct of skin absorption studies”. OECD series on testing assessment. Number 28. ENV/JM/MONO (2004) 2.5 Mar. 2004. Using Franz type cells, of 1.80 cm in diameter, and a surface of 2.54 cm^2. The permeation membrane used was human skin of the abdominal area (0.400 mm thick) from repair surgery and previously treated. This thickness covers the epidermis and dermis above the vascular plexus. […]

Molecules are shown by their SMILES.

As for `O=C1C=CC(=O)c2c(O)cccc21` [Juglone, 5-hydroxy-1,4-naphthalenedione], the “Depth at which the specific fluorescence of Juglone is maintained” value is listed as “less than 120 μm”.
